In test [1] the test system is Canis familiaris. As to the kind of experiment: Increasing effect on femoral blood flow in anesthetized dogs compared to the effect of trapidil. The test is classed as functional, Canis lupus familiaris, Artery.
Test [2] relates to Canis familiaris. Nature of the test: Increasing effect on vertebral blood flow in anesthetized dogs compared to the effect of trapidil. The class given is functional, Canis lupus familiaris.
Test [3] deals with Canis familiaris. Nature of the test: Compound was tested for its hemodynamic effect for percentage change in mean blood pressure in anesthetized Dogs. The test is classed as functional, Canis lupus familiaris.
Test [4] concerns Canis familiaris. As to the kind of experiment: Compound was tested for its hemodynamic effect for percentage change in heart rate in anesthetized Dogs. The test is classed as functional, Canis lupus familiaris.
Test [5] relates to Canis familiaris. As to the kind of experiment: Compound was tested for its hemodynamic effect for percentage change in coronary blood flow in anesthetized Dogs. The class given is functional, Canis lupus familiaris, Artery.
For test [6], the system named is Canis familiaris. Nature of the test: Compound was tested for its hemodynamic effect for percentage change in vertebral blood flow in anesthetized dogs. The test is classed as functional, Canis lupus familiaris.

Molecules are shown by their SMILES. Some results are limits rather than exact numbers.

`COc1ccc(CNCCNS(=O)(=O)c2cccc3cnccc23)cc1` returned a Femoral blood flow in test [1] of 0.43. In test [2], this compound returned a Vertebral blood flow of 0.38. Taken in the same sequence, the figures for `O=[N+]([O-])c1ccc(CNCCNS(=O)(=O)c2cccc3cnccc23)cc1` were 2.5 and 1.5. In the same order, the values of `CCCCCCN(CCCCCC)CCNS(=O)(=O)c1cccc2cnccc12` are 1.2 and 0.48.

Consider `CC(C)N(CCN)S(=O)(=O)c1cccc2cnccc12`, for which the Vertebral blood flow in test [2] is listed as 3.3.

As to `CC(C)N(CCNS(=O)(=O)c1cccc2cnccc12)C(C)C`, the Vertebral blood flow in test [2] is on record as 2.7. The same measure, in the same setting: with `CCCCCCCCNCCNS(=O)(=O)c1cccc2cnccc12` the figure was 0.53; with `CN(CCN)S(=O)(=O)c1cccc2cnccc12`, 1.6; with `O=S(=O)(NCCNCc1ccccc1)c1cccc2cnccc12`, 0.57. In the case of `COc1ccc(CNCCNS(=O)(=O)c2cccc3cnccc23)cc1OC`, the Femoral blood flow in test [1] amounted to 3.7. The same compound had a Vertebral blood flow in test [2] of 4.3. `O=S(=O)(NCCNC1CCCCC1)c1cccc2cnccc12` came in with a Vertebral blood flow in test [2] of 1.4. On the same count and under the same terms, with `CCN(CCN)S(=O)(=O)c1cccc2cnccc12` the figure was 1.3.

Take `Cl.NNS(=O)(=O)c1cccc2cnccc12`: the Vertebral blood flow in test [2] is on record as >100.

The compound `NCCN(Cc1ccccc1)S(=O)(=O)c1cccc2cnccc12` had a Vertebral blood flow in test [2] of 1.92. On the same count and under the same terms, the value for `O=S(=O)(c1cccc2cnccc12)N(CCNCc1ccccc1)Cc1ccccc1` was 1.8.

Take `NCCCNS(=O)(=O)c1cccc2cnccc12`: the Femoral blood flow in test [1] is reported as 3.6. For the same compound, the Vertebral blood flow in test [2] came out at 5.1.

`O=S(=O)(NCCNCc1cccc(Cl)c1)c1cccc2cnccc12`: in test [1], the Femoral blood flow is 0.83. The same compound yielded a Vertebral blood flow in test [2] of 0.26. Taken in the same sequence, the figures for `CCCNCCNS(=O)(=O)c1cccc2cnccc12` were 1.6 and 2.7. Turning to `CCCCNCCNS(=O)(=O)c1cccc2cnccc12`, the Femoral blood flow in test [1] turned out to be 1.3. This compound yielded a Vertebral blood flow in test [2] of 4.6. Taken in the same sequence, the figures for `O=S(=O)(NCCNCc1ccc(Cl)cc1)c1cccc2cnccc12` were 1 and 0.25. Taken in the same sequence, the figures for `CCCCCCN(CCC)CCNS(=O)(=O)c1cccc2cnccc12` were 1.9 and 1.7. In test [1], `O=S(=O)(NCCNCCc1ccccc1)c1cccc2cnccc12` gave a Femoral blood flow of 0.32. Also, in test [2], the Vertebral blood flow is listed as 0.31. In the same order, the values of `CCCCCNCCNS(=O)(=O)c1cccc2cnccc12` are 1 and 2.4.

On to `CCCCCCNCCNS(=O)(=O)c1cccc2cnccc12`, for which the Change in test [3] is listed as -16.8%; in test [4], 3.9%; in test [5] it was 45.7%; in test [6], 93.7%. The compound further returned a Femoral blood flow in test [1] of 0.23. Further, the Vertebral blood flow in test [2] stood at 0.17.

Compound `CN(CCNS(=O)(=O)c1cccc2cnccc12)C1CCCCC1` yielded a Femoral blood flow in test [1] of 0.83. In test [2], this compound returned a Vertebral blood flow of 1.7. Taken in the same sequence, the figures for `NCCCCNS(=O)(=O)c1cccc2cnccc12` were 2.7 and 4.2.

`CN(C)CCNS(=O)(=O)c1cccc2cnccc12` yielded a Vertebral blood flow in test [2] of 1.4. In the case of `CCNCCN(CC)S(=O)(=O)c1cccc2cnccc12`, the Femoral blood flow in test [1] was determined as 1.1. This compound registered a Vertebral blood flow in test [2] of 0.78. Taken in the same sequence, the figures for `O=S(=O)(NCCNCc1ccccc1Cl)c1cccc2cnccc12` were 2.6 and 1.5. For the compound `CCCCCCN(CCN)S(=O)(=O)c1cccc2cnccc12`, the Change in test [3] is given as -11.4%; in test [4], 2.8%; in test [5], 53.6%; in test [6], 91.4%. The compound further showed a Vertebral blood flow in test [2] of 0.12. `CNCCNS(=O)(=O)c1cccc2cnccc12` registered a Femoral blood flow in test [1] of 1.7. The compound further had a Vertebral blood flow in test [2] of 3.7. In the case of `COc1ccc([C@@H]2Sc3ccccc3N(CCN(C)C)C(=O)[C@@H]2OC(C)=O)cc1` [DILTIAZEM], the Change in test [3] is given as -28.9%; in test [4] it was -8%; in test [5], 91.3%; in test [6], 180%. Also, the Femoral blood flow in test [1] stood at 0.21. In test [2], this compound yielded a Vertebral blood flow of 0.15. `NCCCCCCNS(=O)(=O)c1cccc2cnccc12` came in with a Femoral blood flow in test [1] of 2.4. This compound returned a Vertebral blood flow in test [2] of 1.4. Taken in the same sequence, the figures for `NCCNS(=O)(=O)c1cccc2cnccc12` were 2 and 1.8.

In test [2], `CCCCN(CCN)S(=O)(=O)c1cccc2cnccc12` yielded a Vertebral blood flow of 0.27. As to `CCCCCCCCN(CCN)S(=O)(=O)c1cccc2cnccc12`, the Vertebral blood flow in test [2] is 0.92. `CCNCCNS(=O)(=O)c1cccc2cnccc12` came in with a Femoral blood flow in test [1] of 2.7. The compound further returned a Vertebral blood flow in test [2] of 4.2.

Take `CNCCN(C)S(=O)(=O)c1cccc2cnccc12`: the Femoral blood flow in test [1] came out at 1.5. The compound further gave a Vertebral blood flow in test [2] of 1.3. Consider `CCCCCCCCCCNCCNS(=O)(=O)c1cccc2cnccc12`, for which, in test [2], the Vertebral blood flow stood at 0.49.

The values are drawn from ChEMBL document CHEMBL1124336, “5-Isoquinolinesulfonamide derivatives. 2. Synthesis and vasodilatory activity of N-(2-aminoethyl)-5-isoquinolinesulfonamide derivatives” (1989).
